From patent US20250215030A1, “STAT MODULATORS AND USES THEREOF” (Recludix Pharma, Inc., priority 2022, published 2025)
pIC50: −log10 of the molar value.

What was measured:
[1] = biological target: T1, Recombinant STAT6 protein (STAT6(W123-T658)) (Homo sapiens, UniProt P42226); assay: STAT6 Fluorescence Polarization (FP) Assay; format: binding; settings: STAT6(W123-T658) 250 nM, probe 5-FAM-ApYKPFQDLI-NH2 2 nM, 45-minute incubation
T1 construct: STAT6(W123-T658)
T1 sequence (P42226 123-658): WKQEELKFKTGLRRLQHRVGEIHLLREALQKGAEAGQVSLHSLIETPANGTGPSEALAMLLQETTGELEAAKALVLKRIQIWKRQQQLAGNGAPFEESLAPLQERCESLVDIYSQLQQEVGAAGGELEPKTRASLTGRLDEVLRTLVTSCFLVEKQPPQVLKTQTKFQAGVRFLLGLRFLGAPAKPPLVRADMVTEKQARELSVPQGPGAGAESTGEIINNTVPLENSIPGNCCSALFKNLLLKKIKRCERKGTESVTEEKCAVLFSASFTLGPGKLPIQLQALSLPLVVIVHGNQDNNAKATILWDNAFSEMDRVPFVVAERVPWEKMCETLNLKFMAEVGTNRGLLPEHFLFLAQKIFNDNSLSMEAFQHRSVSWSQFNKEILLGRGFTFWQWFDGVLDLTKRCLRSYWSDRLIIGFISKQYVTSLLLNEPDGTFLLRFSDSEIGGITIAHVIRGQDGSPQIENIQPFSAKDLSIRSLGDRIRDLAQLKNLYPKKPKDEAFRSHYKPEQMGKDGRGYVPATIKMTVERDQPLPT
Summary of the method: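 STAT6 (W123-T658) at 250 nM mixed with 2 nM 5-FAM-ApYKPFQDLI-NH2 probe in HEPES pH 7.4 buffer with DTT and Tween 20, 1% DMSO final. Polarization read after 45 min at room temperature; IC50 by nonlinear regression of mP versus log concentration, reported in bins A–D.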

[2] = biological target: T2, Recombinant STAT3 protein (STAT3(G127-I722)) (Homo sapiens, UniProt P40763); assay: STAT3 Fluorescence Polarization (FP) Assay; format: binding; settings: STAT3(G127-I722) 25 nM, probe 5-FAM-GpYLPQTV-NH2 2 nM, 45-minute incubation
T2 construct: STAT3(G127-I722)
Summary of the method: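 STAT3(G127-I722) at 25 nM and 5-FAM-GpYLPQTV-NH2 probe at 2 nM in HEPES pH 7.4 buffer with NaCl, EDTA, Tween 20, DTT; 1% DMSO. FP read after 45 min at room temperature; IC50 by nonlinear regression of mP vs log concentration, binned A ≤100 nM to D >10 μM.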

T2 sequence (P40763 127-722, species assumed): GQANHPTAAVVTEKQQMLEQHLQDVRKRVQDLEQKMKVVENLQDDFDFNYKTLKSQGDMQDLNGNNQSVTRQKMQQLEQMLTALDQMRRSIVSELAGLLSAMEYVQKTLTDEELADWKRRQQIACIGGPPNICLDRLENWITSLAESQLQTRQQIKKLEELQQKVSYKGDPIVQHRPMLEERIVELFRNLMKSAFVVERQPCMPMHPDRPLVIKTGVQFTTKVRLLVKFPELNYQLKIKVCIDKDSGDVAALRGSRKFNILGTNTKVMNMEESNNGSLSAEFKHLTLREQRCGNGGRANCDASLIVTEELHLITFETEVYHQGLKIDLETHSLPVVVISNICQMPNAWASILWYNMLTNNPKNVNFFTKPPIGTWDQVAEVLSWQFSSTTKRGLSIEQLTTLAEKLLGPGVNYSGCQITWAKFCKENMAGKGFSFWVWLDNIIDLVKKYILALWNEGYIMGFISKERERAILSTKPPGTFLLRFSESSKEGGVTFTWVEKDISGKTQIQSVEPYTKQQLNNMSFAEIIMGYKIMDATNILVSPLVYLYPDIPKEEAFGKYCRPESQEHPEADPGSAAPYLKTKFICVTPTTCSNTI

SMILES	pIC50 [1]	pIC50 [2]
COc1ccncc1C1CN(C(=O)[C@@H]2CC[C@@H]3C[C@H]4C[C@H]4C[C@H](NC(=O)c4cc5cc(C(F)P(=O)(O)O)ccc5s4)C(=O)N32)C1 (stereo partly drawn) [Example 272, (fluoro(2-(((3S,6S,7aS,8aR,9aR)-3-(3-(4-methoxypyridin-3-yl)azetidine-1-carbonyl)-5-oxodecahydro-1H-cyclopropa[d]pyrrolo[1,2-a]azocin-6-yl)carbamoyl)benzo[b]thiophen-5-yl)methyl)phosphonic acid]	4.52 to 5.52	> 7.00
CC(=O)N1C[C@H](NC(=O)[C@@H]2CC[C@@H]3C[C@]4(C)C[C@@H]4C[C@H](NC(=O)c4cc5cc(CP(=O)(O)O)ccc5s4)C(=O)N32)[C@@H](F)C1 [Example 273, ((2-(((3S,6S,7aR,8aS,9aR)-3-(((3S,4S)-1-acetyl-4-fluoropyrrolidin-3-yl)carbamoyl)-8a-methyl-5-oxodecahydro-1H-cyclopropa[d]pyrrolo[1,2-a]azocin-6-yl)carbamoyl)benzo[b]thiophen-5-yl)methyl)phosphonic acid]	4.52 to 5.52	5.00 to 6.00
O=C(N[C@H]1C[C@@H]2C[C@@H]2C[C@H]2CC[C@@H](C(=O)N3CC4C3CCN4c3cccnc3)N2C1=O)c1cc2cc(C(F)(F)P(=O)(O)O)ccc2s1 (stereo partly drawn) [Example 274, (difluoro(2-(((3S,6S,7aS,8aR,9aR)-5-oxo-3-(2-(pyridin-3-yl)-2,6-diazabicyclo[3.2.0]heptane-6-carbonyl)decahydro-1H-cyclopropa[d]pyrrolo[1,2-a]azocin-6-yl)carbamoyl)benzo[b]thiophen-5-yl)methyl)phosphonic acid]	5.52 to 6.52	> 7.00
O=C(N[C@H]1C[C@@H]2C[C@@H]2C[C@H]2CC[C@@H](C(=O)N3CC4C3CCN4c3cccnc3)N2C1=O)c1cc2cc(CP(=O)(O)O)ccc2s1 (stereo partly drawn) [Example 275, ((2-(((3S,6S,7aS,8aR,9aR)-5-oxo-3-(2-(pyridin-3-yl)-2,6-diazabicyclo[3.2.0]heptane-6-carbonyl)decahydro-1H-cyclopropa[d]pyrrolo[1,2-a]azocin-6-yl)carbamoyl)benzo[b]thiophen-5-yl)methyl)phosphonic acid]	4.52 to 5.52	6.00 to 7.00
O=C(N[C@H]1C[C@@H]2C[C@@H]2C[C@H]2CC[C@@H](C(=O)N[C@H]3CNC[C@@H]3F)N2C1=O)c1cc2cc(CP(=O)(O)O)ccc2s1 [Example 276, ((2-(((3S,6S,7aS,8aR,9aR)-3-(((3S,4S)-4-fluoropyrrolidin-3-yl)carbamoyl)-5-oxodecahydro-1H-cyclopropa[d]pyrrolo[1,2-a]azocin-6-yl)carbamoyl)benzo[b]thiophen-5-yl)methyl)phosphonic acid]	< 4.52	5.00 to 6.00
Cc1ccncc1C1CN(C(=O)[C@@H]2CC[C@@H]3C[C@H]4C[C@H]4C[C@H](NC(=O)c4cc5cc(CP(=O)(O)O)ccc5s4)C(=O)N32)C1 [Example 277, ((2-(((3S,6S,7aS,8aR,9aR)-3-(3-(4-methylpyridin-3-yl)azetidine-1-carbonyl)-5-oxodecahydro-1H-cyclopropa[d]pyrrolo[1,2-a]azocin-6-yl)carbamoyl)benzo[b]thiophen-5-yl)methyl)phosphonic acid]	< 4.52	6.00 to 7.00
Cc1ccncc1N1C[C@H](NC(=O)[C@@H]2CC[C@@H]3C[C@H]4C[C@H]4C[C@H](NC(=O)c4cc5cc(CP(=O)(O)O)ccc5s4)C(=O)N32)[C@@H](F)C1 [Example 278, ((2-(((3S,6S,7aS,8aR,9aR)-3-(((3S,4S)-4-fluoro-1-(4-methylpyridin-3-yl)pyrrolidin-3-yl)carbamoyl)-5-oxodecahydro-1H-cyclopropa[d]pyrrolo[1,2-a]azocin-6-yl)carbamoyl)benzo[b]thiophen-5-yl)methyl)phosphonic acid]	< 4.52	6.00 to 7.00
O=C(N[C@H]1C[C@@H]2C[C@@H]2C[C@H]2CC[C@@H](C(=O)N[C@H]3CN(c4cncnc4)C[C@@H]3F)N2C1=O)c1cc2cc(CP(=O)(O)O)ccc2s1 [Example 279, ((2-(((3S,6S,7aS,8aR,9aR)-3-(((3S,4S)-4-fluoro-1-(pyrimidin-5-yl)pyrrolidin-3-yl)carbamoyl)-5-oxodecahydro-1H-cyclopropa[d]pyrrolo[1,2-a]azocin-6-yl)carbamoyl)benzo[b]thiophen-5-yl)methyl)phosphonic acid]	< 4.52	< 5.00
Cc1ccncc1C1CN(C(=O)[C@@H]2CC[C@@H]3C[C@H]4C[C@H]4C[C@H](NC(=O)c4cc5cc(C(F)P(=O)(O)O)ccc5s4)C(=O)N32)C1 (stereo partly drawn) [Example 280, (fluoro(2-(((3S,6S,7aS,8aR,9aR)-3-(3-(4-methylpyridin-3-yl)azetidine-1-carbonyl)-5-oxodecahydro-1H-cyclopropa[d]pyrrolo[1,2-a]azocin-6-yl)carbamoyl)benzo[b]thiophen-5-yl)methyl)phosphonic acid]	4.52 to 5.52	> 7.00
Cn1cc(C2CN(C(=O)[C@@H]3CC[C@@H]4C[C@H]5C[C@H]5C[C@H](NC(=O)c5cc6cc(C(F)(F)P(=O)(O)O)ccc6s5)C(=O)N43)C2)cn1 [Example 282, (difluoro(2-(((3S,6S,7aS,8aR,9aR)-3-(3-(1-methyl-1H-pyrazol-4-yl)azetidine-1-carbonyl)-5-oxodecahydro-1H-cyclopropa[d]pyrrolo[1,2-a]azocin-6-yl)carbamoyl)benzo[b]thiophen-5-yl)methyl)phosphonic acid]	4.52 to 5.52	> 7.00
O=C(N[C@H]1C[C@@H]2C[C@@H]2C[C@H]2CC[C@@H](C(=O)N3CC(c4nccs4)C3)N2C1=O)c1cc2cc(C(F)(F)P(=O)(O)O)ccc2s1 [Example 286, (difluoro(2-(((3S,6S,7aS,8aR,9aR)-5-oxo-3-(3-(thiazol-2-yl)azetidine-1-carbonyl)decahydro-1H-cyclopropa[d]pyrrolo[1,2-a]azocin-6-yl)carbamoyl)benzo[b]thiophen-5-yl)methyl)phosphonic acid]	4.52 to 5.52	> 7.00
O=C(N[C@H]1C[C@@H]2C[C@@H]2C[C@H]2CC[C@@H](C(=O)N3CC(c4cn[nH]c4)C3)N2C1=O)c1cc2cc(C(F)(F)P(=O)(O)O)ccc2s1 [Example 288, ((2-(((3S,6S,7aS,8aR,9aR)-3-(3-(1H-pyrazol-4-yl)azetidine-1-carbonyl)-5-oxodecahydro-1H-cyclopropa[d]pyrrolo[1,2-a]azocin-6-yl)carbamoyl)benzo[b]thiophen-5-yl)difluoromethyl)phosphonic acid]	4.52 to 5.52	> 7.00
CC(=O)N1CC[C@@H]2[C@H]1CN2C(=O)[C@@H]1CC[C@@H]2C[C@H]3C[C@H]3C[C@H](NC(=O)c3cc4cc(C(F)P(=O)(O)O)ccc4s3)C(=O)N21 (stereo partly drawn) [Example 290, ((2-(((3S,6S,7aS,8aR,9aR)-3-((1R,5R)-2-acetyl-2,6-diazabicyclo[3.2.0]heptane-6-carbonyl)-5-oxodecahydro-1H-cyclopropa[d]pyrrolo[1,2-a]azocin-6-yl)carbamoyl)benzo[b]thiophen-5-yl)fluoromethyl)phosphonic acid]	4.52 to 5.52	6.00 to 7.00
O=C(N[C@H]1C[C@H]2C[C@H]2C[C@H]2CC[C@@H](C(=O)N3CC(c4cnccc4O)C3)N2C1=O)c1cc2cc(C(F)P(=O)(O)O)ccc2s1 (stereo partly drawn) [Example 293, (fluoro(2-(((3S,6S,7aR,8aS,9aR)-3-(3-(4-hydroxypyridin-3-yl)azetidine-1-carbonyl)-5-oxodecahydro-1H-cyclopropa[d]pyrrolo[1,2-a]azocin-6-yl)carbamoyl)benzo[b]thiophen-5-yl)methyl)phosphonic acid]	5.52 to 6.52	> 7.00
O=C(N[C@H]1C[C@H]2C[C@H]2C[C@H]2CC[C@@H](C(=O)N3CC(c4cnccc4O)C3)N2C1=O)c1cc2cc(CP(=O)(O)O)ccc2s1 [Example 294, ((2-(((3S,6S,7aR,8aS,9aR)-3-(3-(4-hydroxypyridin-3-yl)azetidine-1-carbonyl)-5-oxodecahydro-1H-cyclopropa[d]pyrrolo[1,2-a]azocin-6-yl)carbamoyl)benzo[b]thiophen-5-yl)methyl)phosphonic acid]	4.52 to 5.52	> 7.00
O=C(N[C@H]1C[C@@H]2C[C@@H]2C[C@H]2CC[C@@H](C(=O)N3C[C@H]4[C@@H]3CCN4c3cccnc3)N2C1=O)c1cc2cc(C(F)P(=O)(O)O)ccc2s1 (stereo partly drawn) [Example 295, (fluoro(2-(((3S,6S,7aS,8aR,9aR)-5-oxo-3-((1S,5S)-2-(pyridin-3-yl)-2,6-diazabicyclo[3.2.0]heptane-6-carbonyl)decahydro-1H-cyclopropa[d]pyrrolo[1,2-a]azocin-6-yl)carbamoyl)benzo[b]thiophen-5-yl)methyl)phosphonic acid]	5.52 to 6.52	> 7.00
